In publication PMC11032351, “Epigenetic modulation through BET bromodomain inhibitors as a novel therapeutic strategy for progranulin-deficient frontotemporal dementia” (Scientific Reports, 2024):

Key:
[1] = target: T1, Endogenous BRD4 (HEK293T) (Homo sapiens, UniProt O60885); assay: CoraFluor TR-FRET ligand displacement, endogenous BRD4 in HEK293T lysate; format: binding; conditions: with 95% confidence interval, read-out: Endogenous BRD4 (HEK293T), KD,app
T1 construct: target engagement toward endogenous BRD4 derived from cellular lysates of cell types of interest; endogenous in cells; host or cells: HEK293T
Protocol: A cell pellet from one 15 cm dish (~ 25 M cells) of HEK293T cells, or from one confluent T-75 flask 8330-8 NPC cells (~ 9 M cells), was allowed to thaw on ice and cells were suspended in 400 μL lysis buffer (25 mM HEPES, 150 mM NaCl, 0.2% (v/v) Triton X-100, 0.02% (v/v) TWEEN-20, pH 7.5 supplemented with 2 mM DTT and one Roche cOmplete, Mini, EDTA-free protease inhibitor cocktail tablet (Sigma 11,836,170,001) per 7 mL. Cells were homogenized via passage through a 27.5-gauge needle 5 times, and the resulting mixture was incubated with slow, end-over-end mixing at 4 °C for 15 min. The lysate was clarified via centrifugation at 16,100 × g for 10 min at 4 °C then 800 μL (1:3 dilution) dilution buffer (25 mM HEPES, 150 mM NaCl, 0.005% (v/v) TWEEN-20, pH 7.5) was added and the lysate was re-clarified at 16,100 × g for 10 min at 4 °C. Total protein was quantified via detergent-compatible Bradford assay (ThermoFisher 23,246). The lysate was used fresh or flash-frozen in liquid nitrogen and stored at − 80 °C in single-use aliquots.
(§1) Unless otherwise noted, experiments were performed in white, 384-well microtiter plates (Corning 3572 or PerkinElmer ProxiPlate-384 Plus) in 30 μL or 10 μL assay volume, respectively. TR-FRET measurements were acquired on a Tecan SPARK plate reader with SPARKCONTROL software version V2.1 (Tecan Group Ltd.), with the following settings: 340/50 nm excitation, 490/10 nm (Tb), 520/10 nm (FITC) emission, 100 μs delay, and 400 μs integration. The 490/10 and 520/10 nm emission channels were acquired with a 50% mirror and a dichroic 510 mirror, respectively, using independently optimized detector gain settings unless specified otherwise. The TR-FRET ratio was taken as the 520/490 nm intensity ratio on a per-well basis.
For the profiling of endogenous BRD4, cell lysates as prepared above were diluted to 0.8 mg/mL total protein in 1:3 lysis buffer:dilution buffer with 0.5 nM rabbit anti-BRD4 antibody (Cell Signaling Technology; E2A7X) and 1 nM CoraFluor-1-labeled anti-rabbit Nano-Secondary (ChromoTek CTK0101). JQ1-FITC was added in serial dilution (cmax = 200 nM) using an HP D300 digital dispenser and allowed to equilibrate for 2 h at room temperature before TR-FRET measurements were taken. Nonspecific signal was determined with 50 μM JQ1-Acid, and data were fitted to a One Site–Specific Binding model in Prism 9. The KD,app determined from the one-site model was then adjusted for a two-site model using Eq. 1.
(§2) The following assay parameters have been used: (i) 4 nM GST-BRD4(BD1), 4 nM CoraFluor-labeled GST VHH, 20 nM JQ1-FITC in assay buffer, (ii) 4 nM GST-BRD4(BD2), 4 nM CoraFluor-labeled GST VHH, 20 nM JQ1-FITC in assay buffer, (iii) HEK293T or NPC cell lysate at 0.8 mg/mL total protein, 1 nM rabbit anti-BRD4 antibody, 2 nM CoraFluor-labeled anti-rabbit Nano-Secondary, 20 nM JQ1-FITC. For all experiments, test compounds were added in serial dilution (cmax = 10 μM) using an HP D300 digital dispenser and allowed to equilibrate for 2 h at room temperature before TR-FRET measurements were taken. The assay floor (background) was defined with the 10 μM mivebresib dose, and the assay ceiling (top) was defined via a no-inhibitor control. Data were fitted to a four-parameter dose–response model in Prism 9.
(§3) For TR-FRET ligand displacement assays with recombinant bromodomains, we have determined the KD of the respective fluorescent tracer (JQ1-FITC) under each assay condition. For endogenous BRD4 in whole cell extract, we have determined the KD,app of JQ1-FITC under each assay condition. Inhibitor KD and KD,app values have been calculated using Cheng-Prusoff principles, outlined in Eq. 2 below:2 KDorKD,app=IC50/1+[S]/KX where IC50 is the measured IC50 value, [S] is the concentration of fluorescent tracer, and KX is the KD or KD,app of the fluorescent tracer for a given condition.

Recombinant BRD4(BD1) = target: T2, Recombinant BRD4(BD1) (Homo sapiens, UniProt O60885); assay: TR-FRET ligand displacement, recombinant GST-BRD4(BD1); format: binding; conditions: for Kd: GST-tagged, with 95% confidence interval
T2 construct: using the recombinant, individually purified bromodomains of BRD4 (GST-tagged BD1 and BD2); purchased BPS Biosciences, Inc 31,040
Protocol: as §1
Assays were performed as described. Recombinant BRD4(BD1) and BRD4(BD2) were purchased from BPS Biosciences, Inc and Epicypher, Inc (GST-BRD4(BD1), 31,040; GST-BRD4(BD2), 15–0013, respectively). Recombinant bromodomains were diluted to 0.5 nM in assay buffer (25 mM HEPES, 150 mM NaCl, 0.5 mg/mL BSA, 0.005% TWEEN-20, pH 7.5) with 2 nM CoraFluor-1-labeled GST VHH (ChromoTek ST-250), then JQ1-FITC was added in serial dilution (cmax = 100 nM) using an HP D300 digital dispenser and allowed to equilibrate for 2 h at room temperature before TR-FRET measurements were taken. Nonspecific signal was determined with 50 μM JQ1-Acid, and data were fitted to a One Site–Specific Binding model in Prism 9. The KD determined from the one-site model was then used in Eq. 1 to adjust for a two-site model due to the dimeric GST protein:1 KD,2-site=KD,1-site×(1+2)
as §2, §3

## Cn1ccc2c(-c3cccnc3Oc3ccc(F)cc3)c[nH]c2c1=O [Compound 18B, 3-[2-(4-fluorophenoxy)pyridin-3-yl]-6-methyl-1,6-dihydro-7H-pyrrolo[2,3-c]pyridin-7-one]
[1]
  Kd: 121 nM
Recombinant BRD4(BD1)
  Kd: 46 nM

## Cn1cc(-c2cccnc2Oc2ccc(F)cc2)c2cc[nH]c2c1=O [Compound 18A, 4-(2-(4-fluorophenoxy)pyridin-3-yl)-6-methyl-1H-pyrrolo[2,3-c]pyridin-7(6H)-one]
[1]
  Kd: 44 nM
Recombinant BRD4(BD1)
  Kd: 28 nM

## Cn1ccc2c(-c3cc(F)cnc3Oc3ccc(F)cc3)c[nH]c2c1=O [Compound 86B, 3-(5-fluoro-2-(4-fluorophenoxy)pyridin-3-yl)-6-methyl-1,6-dihydro-7H-pyrrolo[2,3-c]pyridin-7-one]
[1]
  Kd: 7150 nM
Recombinant BRD4(BD1)
  Kd: 2640 nM

## Cn1ccc2c(-c3cccnc3Oc3ccc(F)c(F)c3)c[nH]c2c1=O [Compound 81B, 3-(2-(3,4-difluorophenoxy)pyridin-3-yl)-6-methyl-1,6-dihydro-7H-pyrrolo[2,3-c]pyridin-7-one]
[1]
  Kd: 538 nM
Recombinant BRD4(BD1)
  Kd: 126 nM

## Cn1ccc2c(-c3cccnc3Sc3ccc(F)cc3)c[nH]c2c1=O [Compound 84B, 3-(2-((4-fluorophenyl)thio)pyridin-3-yl)-6-methyl-1,6-dihydro-7H-pyrrolo[2,3-c]pyridin-7-one]
[1]
  Kd: 196 nM
Recombinant BRD4(BD1)
  Kd: 43 nM

## Cn1ccc2c(-c3cccnc3Nc3ccc(F)cc3)c[nH]c2c1=O [Compound 85B, 3-(2-((4-fluorophenyl)amino)pyridin-3-yl)-6-methyl-1,6-dihydro-7H-pyrrolo[2,3-c]pyridin-7-one]
[1]
  Kd: 3910 nM
Recombinant BRD4(BD1)
  Kd: 951 nM

## Cn1ccc2c(-c3cccnc3Oc3cc(F)cc(F)c3)c[nH]c2c1=O [Compound 82B, 3-(2-(3,5-difluorophenoxy)pyridin-3-yl)-6-methyl-1,6-dihydro-7H-pyrrolo[2,3-c]pyridin-7-one]
[1]
  Kd: 519 nM
Recombinant BRD4(BD1)
  Kd: 147 nM

## Cn1cc(-c2cccnc2Sc2ccc(F)cc2)c2cc[nH]c2c1=O [Compound 84A, 4-(2-((4-fluorophenyl)thio)pyridin-3-yl)-6-methyl-1,6-dihydro-7H-pyrrolo[2,3-c]pyridin-7-one]
[1]
  Kd: 370 nM
Recombinant BRD4(BD1)
  Kd: 303 nM

## Cn1cc(-c2cccnc2Oc2ccc(F)c(F)c2)c2cc[nH]c2c1=O [Compound 81A, 4-(2-(3,4-difluorophenoxy)pyridin-3-yl)-6-methyl-1,6-dihydro-7H-pyrrolo[2,3-c]pyridin-7-one]
[1]
  Kd: 30 nM
Recombinant BRD4(BD1)
  Kd: 29 nM

## Cn1cc(-c2cccnc2Oc2cc(F)cc(F)c2)c2cc[nH]c2c1=O [Compound 82A, 4-(2-(3,5-difluorophenoxy)pyridin-3-yl)-6-methyl-1,6-dihydro-7H-pyrrolo[2,3-c]pyridin-7-one]
[1]
  Kd: 49 nM
Recombinant BRD4(BD1)
  Kd: 41 nM

## Cn1cc(-c2cc(F)cnc2Oc2ccc(F)cc2)c2cc[nH]c2c1=O [Compound 86A, 4-(5-fluoro-2-(4-fluorophenoxy)pyridin-3-yl)-6-methyl-1,6-dihydro-7H-pyrrolo[2,3-c]pyridin-7-one]
[1]
  Kd: 559 nM
Recombinant BRD4(BD1)
  Kd: 168 nM

## Cn1cc(-c2cccnc2Nc2ccc(F)cc2)c2cc[nH]c2c1=O [Compound 85A, 4-(2-((4-fluorophenyl)amino)pyridin-3-yl)-6-methyl-1,6-dihydro-7H-pyrrolo[2,3-c]pyridin-7-one]
[1]
  Kd: 93 nM
Recombinant BRD4(BD1)
  Kd: 76 nM
Recombinant BRD4(BD1); recombinant BRD4 BD1 vs BD2
  selectivity for BD1 over BD2: ~ 5.5 fold
